# Experimental data: US7816555B2, “Peroxycarboxylic acid compositions with reduced odor” (Ecolab Inc., priority 2003, dated 2010)
# Experiment: pH of the mixtures
# Assay type: physicochemical
# Details: mixture at the stated moles of POAA, AA and AO-8
# Protocol: Octyldimethylamine oxide was added to a peracid composition containing 15% peroxyacetic acid, 10% hydrogen peroxide, and about 40-45% acetic acid. The octyldimethylamine oxide was added at different levels, corresponding to differing molar ratios of peroxyacetic acid (POAA) to acetic acid (AA) to octyldimethylamine oxide (AO-8). The mixture was then compared for remaining odor. […] It was surprising that this reduction occurred even at pH too low for ion pair formation between the AO-8 and POAA, i.e. substantially below the 8.2 pKa of POAA.
structure (smiles),measurement,value
"CCCCCCCC[N+](C)(C)[O-] [AO-8, octyldimethylamine oxide]",mixture results: pH,7.7
